In ChEMBL document CHEMBL3232917, “Schiff's base derivatives bearing nitroimidazole and quinoline nuclei: new class of anticancer agents and potential EGFR tyrosine kinase inhibitors” (Bioorg Med Chem Lett, 2014) one finds IC50 data, which are given here for ten compounds.

In one assay the test system is HepG2. Nature of the assay: cells. As to conditions: Homo sapiens, HepG2, 48 h.
The next assay has as its system A549. Nature of the assay: cells. As to conditions: Homo sapiens, A549, 48 h.
Assay [1] deals with Receptor tyrosine-protein kinase erbB-2 (Homo sapiens) (UniProt P04626). Nature of the assay: Inhibition of autophosphorylation of human HER2 cytoplasmic domain (amino acids 676 to 1245) (unknown origin) expressed in Sf9 cells after 1 hr by time-resolved fluorometry.
For assay [2], the target named is Epidermal growth factor receptor (Homo sapiens, UniProt P00533). The assay can be described thus: Inhibition of autophosphorylation of EGFR cytoplasmic domain (amino acids 645 to 1186) (unknown origin) expressed in Sf9 cells after 1 hr by time-resolved fluorometry.
Chain of Epidermal growth factor receptor (P00533 whole entry, the tested form may be a part): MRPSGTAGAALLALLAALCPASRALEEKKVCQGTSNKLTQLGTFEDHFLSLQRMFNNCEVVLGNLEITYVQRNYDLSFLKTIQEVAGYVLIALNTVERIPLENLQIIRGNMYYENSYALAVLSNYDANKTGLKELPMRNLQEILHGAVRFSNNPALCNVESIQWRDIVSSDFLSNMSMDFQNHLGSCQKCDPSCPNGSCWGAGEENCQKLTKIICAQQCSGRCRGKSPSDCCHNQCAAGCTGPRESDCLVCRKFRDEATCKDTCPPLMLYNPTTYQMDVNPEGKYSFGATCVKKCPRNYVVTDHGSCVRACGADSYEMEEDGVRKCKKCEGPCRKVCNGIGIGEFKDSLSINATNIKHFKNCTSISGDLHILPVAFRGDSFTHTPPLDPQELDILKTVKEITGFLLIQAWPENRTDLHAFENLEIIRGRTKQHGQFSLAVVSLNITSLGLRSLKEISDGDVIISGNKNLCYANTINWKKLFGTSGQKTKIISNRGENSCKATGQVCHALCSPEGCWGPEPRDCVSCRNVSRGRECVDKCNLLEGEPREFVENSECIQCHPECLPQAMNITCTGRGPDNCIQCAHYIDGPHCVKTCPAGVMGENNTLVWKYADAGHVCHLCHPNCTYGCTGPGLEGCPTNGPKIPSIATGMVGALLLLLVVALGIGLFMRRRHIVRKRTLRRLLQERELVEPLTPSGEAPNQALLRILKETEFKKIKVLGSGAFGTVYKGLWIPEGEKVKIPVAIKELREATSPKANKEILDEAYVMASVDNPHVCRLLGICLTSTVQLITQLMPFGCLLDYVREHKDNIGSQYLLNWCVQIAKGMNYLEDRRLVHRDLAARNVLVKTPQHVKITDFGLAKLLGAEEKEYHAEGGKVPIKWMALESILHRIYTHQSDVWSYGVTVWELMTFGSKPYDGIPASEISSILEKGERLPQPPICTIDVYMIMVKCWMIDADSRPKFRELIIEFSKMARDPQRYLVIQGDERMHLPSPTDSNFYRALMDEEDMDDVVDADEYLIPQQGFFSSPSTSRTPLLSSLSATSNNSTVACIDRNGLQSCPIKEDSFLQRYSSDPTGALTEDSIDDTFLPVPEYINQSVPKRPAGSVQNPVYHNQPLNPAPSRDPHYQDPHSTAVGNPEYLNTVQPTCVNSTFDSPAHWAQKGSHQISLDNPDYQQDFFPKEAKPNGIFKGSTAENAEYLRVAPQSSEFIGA

Chain of Receptor tyrosine-protein kinase erbB-2 (Homo sapiens) (P04626 whole entry, looked up, the tested form may be a part): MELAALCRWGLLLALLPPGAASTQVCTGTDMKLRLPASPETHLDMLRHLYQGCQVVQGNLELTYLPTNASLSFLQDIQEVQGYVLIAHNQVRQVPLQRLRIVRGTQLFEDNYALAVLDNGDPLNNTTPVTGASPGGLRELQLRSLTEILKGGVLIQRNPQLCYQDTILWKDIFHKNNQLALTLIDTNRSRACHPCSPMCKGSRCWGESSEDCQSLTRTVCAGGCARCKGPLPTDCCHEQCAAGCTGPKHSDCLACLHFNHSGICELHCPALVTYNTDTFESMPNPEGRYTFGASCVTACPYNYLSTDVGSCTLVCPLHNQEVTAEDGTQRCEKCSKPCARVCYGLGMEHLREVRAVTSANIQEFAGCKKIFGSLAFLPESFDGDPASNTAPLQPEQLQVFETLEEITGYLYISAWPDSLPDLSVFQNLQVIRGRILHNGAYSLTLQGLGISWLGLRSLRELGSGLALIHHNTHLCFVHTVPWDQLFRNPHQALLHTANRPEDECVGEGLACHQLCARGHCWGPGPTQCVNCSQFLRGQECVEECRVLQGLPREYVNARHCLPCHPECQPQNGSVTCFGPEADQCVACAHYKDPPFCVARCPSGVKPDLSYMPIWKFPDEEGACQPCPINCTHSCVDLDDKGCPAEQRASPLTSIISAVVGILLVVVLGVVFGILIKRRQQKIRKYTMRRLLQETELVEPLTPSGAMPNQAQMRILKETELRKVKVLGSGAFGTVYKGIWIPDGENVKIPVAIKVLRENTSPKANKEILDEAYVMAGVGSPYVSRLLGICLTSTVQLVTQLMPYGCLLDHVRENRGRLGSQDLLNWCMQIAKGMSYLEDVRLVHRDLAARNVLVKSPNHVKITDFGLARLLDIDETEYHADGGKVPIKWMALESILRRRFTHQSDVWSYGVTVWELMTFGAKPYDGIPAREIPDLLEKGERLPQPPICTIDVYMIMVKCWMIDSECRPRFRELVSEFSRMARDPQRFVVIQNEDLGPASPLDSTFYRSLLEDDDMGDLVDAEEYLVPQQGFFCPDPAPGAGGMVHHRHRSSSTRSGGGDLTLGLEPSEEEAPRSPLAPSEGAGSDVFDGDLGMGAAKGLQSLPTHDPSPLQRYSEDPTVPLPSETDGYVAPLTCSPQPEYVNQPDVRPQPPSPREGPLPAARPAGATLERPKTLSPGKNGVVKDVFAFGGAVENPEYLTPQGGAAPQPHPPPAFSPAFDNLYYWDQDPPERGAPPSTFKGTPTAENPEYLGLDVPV

In the case of `Cc1ncc([N+](=O)[O-])n1CC(=O)N/N=C/c1cc2ccccc2nc1Oc1ccccc1`, the values for the IC50 with HepG2 and in the assay with A549 were 13.3 µM and 9.45 µM, respectively.

For the compound `Cc1ccc(Oc2nc3ccccc3cc2/C=N/NC(=O)Cn2c([N+](=O)[O-])cnc2C)cc1`, the IC50 (in general, the concentration needed to halve the response being measured) in assay [1] was 7.67 µM; in the assay on HepG2, 27.1 µM; in the assay on A549, 21.5 µM; in assay [2] it was 23.1 µM.

For `COc1ccc(Oc2nc3ccccc3cc2/C=N/NC(=O)Cn2c([N+](=O)[O-])cnc2C)cc1`, the IC50 was 12 µM in assay [1], 4.13 µM in the assay on HepG2, 0.92 µM in the assay with A549 and 0.27 µM in assay [2].

With `Cc1ncc([N+](=O)[O-])n1CC(=O)N/N=C/c1cc2ccccc2nc1Oc1ccc(F)cc1`, the 50% inhibitory concentration (IC50) in assay [1] turned out to be 0.37 µM; in the assay on HepG2, 0.18 µM; in the assay with A549, 3.12 µM; in assay [2], 21 µM.

Regarding `Cc1ncc([N+](=O)[O-])n1CC(=O)N/N=C/c1cc2ccccc2nc1Oc1ccc(Cl)cc1`, the IC50 was 4.1 µM in assay [1], 0.22 µM in the assay on HepG2, 9.03 µM with A549 and 5.12 µM in assay [2].

Take `Cc1ccc2nc(Oc3ccccc3)c(/C=N/NC(=O)Cn3c([N+](=O)[O-])cnc3C)cc2c1`: the IC50 in assay [1] was determined as 1.58 µM; with HepG2, 15.1 µM; in the assay on A549 it was 7.18 µM; in assay [2] it was 3.17 µM.

For the compound `Cc1ccc(Oc2nc3ccc(C)cc3cc2/C=N/NC(=O)Cn2c([N+](=O)[O-])cnc2C)cc1`, the IC50 in assay [1] turned out to be 17 µM; in the assay on HepG2 it was 21.9 µM; in the assay on A549, 1.19 µM; in assay [2], 0.18 µM.

`COc1ccc(Oc2nc3ccc(C)cc3cc2/C=N/NC(=O)Cn2c([N+](=O)[O-])cnc2C)cc1`: the IC50 in assay [1] is 2.18 µM; with HepG2, 3.15 µM; in the assay with A549, 0.16 µM; in assay [2], 0.12 µM.

In the case of `Cc1ccc2nc(Oc3ccc(F)cc3)c(/C=N/NC(=O)Cn3c([N+](=O)[O-])cnc3C)cc2c1`, the IC50 came out at 0.43 µM in assay [1], 1.56 µM in the assay with HepG2, 0.19 µM in the assay on A549 and 0.42 µM in assay [2].

Take `Cc1ccc2nc(Oc3ccc(Cl)cc3)c(/C=N/NC(=O)Cn3c([N+](=O)[O-])cnc3C)cc2c1`: the IC50 in assay [1] is 19 µM; in the assay with HepG2, 3.18 µM; in the assay on A549 it was 1.23 µM; in assay [2] it was 8.66 µM.
